Legend:
[1] = molecular target: Ca2+-specific inward current (ICa) (Rattus norvegicus, UniProt P22002); test: Whole-cell patch clamp, ICa in isolated rat ventricular myocytes; assay type: cell-based
From the text: For various aspects of cardiac ion channel study, human embryonic kidney (HEK293; ATCC, Manassas, VA, USA) cells were transiently transfected using lipofectAmin2000 (Gibco BRL, New York, NY, USA) according to the manufacturer’s instructions. The hERG (human ether-ago-go-related gene corresponding to IKr), KCNQ1/KCNE1 (the gene corresponding to IKs), KCNJ2 (the gene corresponding to IK1) or SCN5A (the gene corresponding to INa) cDNA was co-transfected with green fluorescence protein, the surface marker protein, to allow assessment of the transfection efficiency. For the calcium current, enzymatically isolated single rat ventricular myocytes were used. Briefly, the hearts were rapidly excised from anaesthetized Sprague–Dawley rats (250–350 g) and perfused via the aorta on a Langendorff apparatus with an oxygenated normal Tyrode (NT) solution for 5 min. To clear the blood, then perfused with Ca^2+-free normal Tyrode solution for 3 min. […]
The external solution for recording the IhERG, IKs and INa channel currents was NT solution. […] The calcium current was measured in naïve rat ventricular myocytes, cells were superfused with an external solution that consisted of (in mM): 137 choline-Cl, 5 CsCl, 0.5 MgCl2, 2 4-AP, 10 HEPES, 10 glucose and 1.8 CaCl2 (pH 7.4 with NaOH), whereas the intracellular solution used to fill the pipette had the following ionic solution (in mM): 20 CsCl, 100 Cs-aspartate, 10 EGTA, 10 HEPES, 20 TEA-Cl, 5 Mg-ATP (pH 7.25 with KOH). […]
pCLAMP (Axon Instruments, Foster City, CA, USA), Origin 8 (OriginLab Corp, Northampton, MA, USA), and Excel (Microsoft, Redmond, WA, USA) were used for data acquisition and analysis. The concentration–response relationships for drug-induced blockage were calculated using SigmaPlot (Systat Software, San Jose, CA, USA). […] Statistical significance was determined using the Student’s t-test and one-way ANOVA with post hoc testing using Dunnett’s method; p < 0.05 was considered to indicate statistical significance. […]

S624A hERG = S624A hERG (Homo sapiens, UniProt Q12809, S624A); conditions: 3 μM
From the text: (§1) The hERG mutations were constructed by site-directed mutagenesis of WT hERG cDNA in pcDNA3.1 vector using the QuickChange Site-Directed Mutagenesis Kit (Stratagene), and the integrity of the construct was verified by DNA sequencing. The WT hERG (generously donated by Professor Ho, Seoul National University, Korea) and mutant channels were transiently expressed in an HEK-293 cell line using Lipofectamine 2000 (Gibco), according to the manufacturer’s recommendations.

T623A hERG = T623A hERG (Homo sapiens, UniProt Q12809, T623A); conditions: 3 μM
From the text: as §1

WT (inward) hERG = WT (inward) hERG (Homo sapiens, UniProt Q12809); conditions: 3 μM, -120 mV, high K+
From the text: as §1

[2] = molecular target: WT hERG (inward tail current) (Homo sapiens, UniProt Q12809); conditions: human, HEK-293 cells transiently expressing wild-type hERG
From the text: as §1

Y652A hERG = Y652A hERG (Homo sapiens, UniProt Q12809, Y652A); test: in vitro; conditions: HEK-293 cells transiently expressing Y652A mutant hERG

Chain of Ca2+-specific inward current (ICa) (P22002 whole entry, other chains not shown): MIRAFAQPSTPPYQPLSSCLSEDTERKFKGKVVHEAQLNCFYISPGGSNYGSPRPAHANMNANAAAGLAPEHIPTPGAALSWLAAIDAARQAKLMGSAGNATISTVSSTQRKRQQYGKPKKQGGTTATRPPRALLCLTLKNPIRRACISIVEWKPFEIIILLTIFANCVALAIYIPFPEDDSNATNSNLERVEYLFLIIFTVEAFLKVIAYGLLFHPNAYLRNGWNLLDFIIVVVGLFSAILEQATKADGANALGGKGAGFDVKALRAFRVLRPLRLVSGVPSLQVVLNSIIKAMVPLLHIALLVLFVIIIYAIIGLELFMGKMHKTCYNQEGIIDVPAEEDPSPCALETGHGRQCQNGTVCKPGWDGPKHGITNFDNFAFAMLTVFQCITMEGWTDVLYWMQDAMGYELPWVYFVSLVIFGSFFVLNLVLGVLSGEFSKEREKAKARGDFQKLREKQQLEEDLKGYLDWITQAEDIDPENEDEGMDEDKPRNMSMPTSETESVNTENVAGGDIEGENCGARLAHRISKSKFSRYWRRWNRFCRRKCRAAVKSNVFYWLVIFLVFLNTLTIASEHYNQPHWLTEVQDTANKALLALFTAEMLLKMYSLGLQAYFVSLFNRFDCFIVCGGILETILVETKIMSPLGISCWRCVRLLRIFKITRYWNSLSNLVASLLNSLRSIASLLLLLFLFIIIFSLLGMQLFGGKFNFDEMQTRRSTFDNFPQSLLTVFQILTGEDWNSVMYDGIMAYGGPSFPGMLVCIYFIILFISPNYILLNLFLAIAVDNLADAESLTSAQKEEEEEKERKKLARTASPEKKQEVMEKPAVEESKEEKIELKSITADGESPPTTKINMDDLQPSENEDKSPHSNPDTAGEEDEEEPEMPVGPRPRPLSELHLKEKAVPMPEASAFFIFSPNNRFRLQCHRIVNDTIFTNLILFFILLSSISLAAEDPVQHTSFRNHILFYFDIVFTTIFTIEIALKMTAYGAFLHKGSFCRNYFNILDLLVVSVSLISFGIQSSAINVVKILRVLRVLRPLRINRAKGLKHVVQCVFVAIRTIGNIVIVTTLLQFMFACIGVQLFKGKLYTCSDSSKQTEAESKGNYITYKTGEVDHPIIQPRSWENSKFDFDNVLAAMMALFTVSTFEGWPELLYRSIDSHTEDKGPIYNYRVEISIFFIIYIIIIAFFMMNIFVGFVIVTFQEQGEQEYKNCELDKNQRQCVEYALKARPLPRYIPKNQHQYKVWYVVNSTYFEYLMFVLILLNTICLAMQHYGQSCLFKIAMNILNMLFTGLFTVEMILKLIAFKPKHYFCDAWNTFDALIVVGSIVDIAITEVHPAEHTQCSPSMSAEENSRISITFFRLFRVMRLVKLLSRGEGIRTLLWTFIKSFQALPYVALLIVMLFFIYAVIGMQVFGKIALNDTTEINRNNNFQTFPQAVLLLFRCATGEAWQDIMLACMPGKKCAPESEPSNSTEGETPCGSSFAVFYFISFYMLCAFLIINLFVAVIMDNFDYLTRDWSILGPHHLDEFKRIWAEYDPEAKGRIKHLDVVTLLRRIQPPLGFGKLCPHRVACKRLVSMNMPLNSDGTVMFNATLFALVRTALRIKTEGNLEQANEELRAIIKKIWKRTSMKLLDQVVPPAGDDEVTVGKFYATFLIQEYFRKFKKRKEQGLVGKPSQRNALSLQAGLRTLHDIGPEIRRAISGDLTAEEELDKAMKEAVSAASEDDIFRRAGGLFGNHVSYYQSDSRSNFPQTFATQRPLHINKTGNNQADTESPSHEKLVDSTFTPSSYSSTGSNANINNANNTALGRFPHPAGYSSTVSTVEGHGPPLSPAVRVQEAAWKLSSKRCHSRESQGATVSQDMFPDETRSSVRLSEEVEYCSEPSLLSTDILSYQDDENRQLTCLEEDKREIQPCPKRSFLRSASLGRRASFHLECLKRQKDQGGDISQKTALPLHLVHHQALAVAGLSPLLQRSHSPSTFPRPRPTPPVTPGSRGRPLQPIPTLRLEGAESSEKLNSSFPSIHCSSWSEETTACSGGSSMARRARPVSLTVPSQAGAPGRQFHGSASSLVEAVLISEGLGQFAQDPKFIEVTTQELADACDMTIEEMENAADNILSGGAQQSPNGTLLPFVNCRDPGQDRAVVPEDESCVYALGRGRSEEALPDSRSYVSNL
Chain of Ca2+-specific inward current (ICa) (P54290 25-1091 partner, other chains not shown): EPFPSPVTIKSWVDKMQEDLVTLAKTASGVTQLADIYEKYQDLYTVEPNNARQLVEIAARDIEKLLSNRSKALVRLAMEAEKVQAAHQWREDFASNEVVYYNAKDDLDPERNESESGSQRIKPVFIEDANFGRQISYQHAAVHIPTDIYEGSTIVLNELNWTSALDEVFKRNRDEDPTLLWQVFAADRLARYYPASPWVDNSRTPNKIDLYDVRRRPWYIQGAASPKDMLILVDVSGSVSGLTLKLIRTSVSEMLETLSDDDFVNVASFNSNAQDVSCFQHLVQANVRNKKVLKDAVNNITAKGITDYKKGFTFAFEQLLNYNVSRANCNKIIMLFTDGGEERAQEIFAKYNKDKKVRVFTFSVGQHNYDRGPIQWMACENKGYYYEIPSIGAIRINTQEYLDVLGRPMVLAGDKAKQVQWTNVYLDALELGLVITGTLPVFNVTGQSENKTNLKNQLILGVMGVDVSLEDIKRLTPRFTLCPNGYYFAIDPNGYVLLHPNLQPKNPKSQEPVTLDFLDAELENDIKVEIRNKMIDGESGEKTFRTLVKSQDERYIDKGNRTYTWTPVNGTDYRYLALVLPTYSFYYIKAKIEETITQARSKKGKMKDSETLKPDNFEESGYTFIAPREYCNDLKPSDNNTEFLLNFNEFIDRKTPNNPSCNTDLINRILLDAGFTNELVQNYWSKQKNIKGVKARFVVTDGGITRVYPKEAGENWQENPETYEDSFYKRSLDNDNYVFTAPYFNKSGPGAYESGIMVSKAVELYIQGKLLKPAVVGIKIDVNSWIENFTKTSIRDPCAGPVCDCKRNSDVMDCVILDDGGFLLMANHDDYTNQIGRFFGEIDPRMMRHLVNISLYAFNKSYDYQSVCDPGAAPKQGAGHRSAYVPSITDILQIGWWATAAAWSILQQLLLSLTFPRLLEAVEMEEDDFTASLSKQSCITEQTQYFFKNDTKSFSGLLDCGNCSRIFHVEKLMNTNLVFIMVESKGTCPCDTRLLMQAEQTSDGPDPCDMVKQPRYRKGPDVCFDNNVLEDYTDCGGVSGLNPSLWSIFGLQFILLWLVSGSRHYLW

COc1cc2c(Nc3ccc(Br)cc3F)ncnc2cc1OCC1CCN(C)CC1 [Vandetanib]
ICa current ([1]; 10 μM): -1639.5 ± 238.1
ICa current ([1]; 30 μM): -990.7 ± 97.8
ICa current ([1]; 100 μM): -219.7 ± 24.4
S624A hERG current (S624A hERG): 78.1 ± 31.0
T623A hERG current (T623A hERG): 266.1 ± 117.0
WT (inward) hERG current (WT (inward) hERG): -1818.9 ± 217.3
inhibition at 3 μM [2]: 69 ± 1.8%
inhibition at 3 μM (Y652A hERG): 64.2 ± 2.8%
